# Test results published in patent US12157738B2, “Macrocyclic inhibitors of ALK, TRKA, TRKB, and ROS1” (DANA-FARBER CANCER INSTITUTE, INC., priority 2018, dated 2024).
# What was measured:
# TRK3 = target: T1, TRK3 (Homo sapiens, UniProt Q16288); assay: Invitrogen Z'-lyte or LanthaScreen kinase IC50 assay; assay type: biochemical
# T1 construct: purchased Invitrogen
# Text: (§1) The IC50 values were generated from Invitrogen™'s Z'-lytet™ or LanthaScreen™ assays.
# ALK L1196M = target: T2, ALK L1196M (Homo sapiens, UniProt Q9UM73, L1196M); assay: as above; assay type: biochemical
# T2 construct: purchased Invitrogen
# Text: as §1
# ALK = target: T3, ALK (Homo sapiens, UniProt Q9UM73); assay: as above; assay type: biochemical
# T3 construct: similar enzymatic potency was observed against full length ALK and ALK mutants; purchased Invitrogen
# Text: as §1
# TRK2 = target: T4, TRK2 (Homo sapiens, UniProt Q16620); assay: as above; assay type: biochemical
# T4 construct: purchased Invitrogen
# Text: as §1
# ROS1 = target: T5, ROS1 (Homo sapiens, UniProt P08922); assay: as above; assay type: biochemical
# T5 construct: purchased Invitrogen
# Text: as §1
# TRK1 = target: T6, TRK1 (Homo sapiens, UniProt P04629); assay: as above; assay type: biochemical
# T6 construct: purchased Invitrogen
# Text: as §1
# Parental WT Ba/F3 cells = assay: Cell viability assay (CellTiter-Glo, 72 hr); assay type: cell-based; settings: for IC50: Mus musculus, BaF3, 72 hr
# Experimental: (§2) Ba/F3 cell lines were cultured in RPMI-1640 media containing L-glutamine, supplemented with 10% fetal bovine serum (FBS) and 1% penicillin/streptomycin. Parental Ba/F3 cells were cultured with an additional 1 ng/mL recombinant mouse IL-3 (ProSpec). Mycoplasma testing was performed on a monthly basis and all lines were negative. Cell viability was evaluated using the CellTiter-Glo® Luminescent Cell Viability Assay (Promega) following the manufacturer's standards. 12-point dose titrations were tested in triplicate from 10000 nM to 0.056 nM over 72 hr. Anti-proliferative best fit IC50 values were calculated by Graphpad Prism 7 software.
# The experimental protocol was as in Example 11.
# CD74-NTRK1 Ba/F3 cells = target: T7, CD74-NTRK1 Ba/F3 cells (Homo sapiens, UniProt P04629); assay: Cell viability assay (CellTiter-Glo, 72 hr); assay type: cell-based; settings: for IC50: 72 hr
# T7 construct: expressed in transfected cells; host or cells: Ba/F3; the other entry of the earlier key: CD74 (P04233, HLA class II histocompatibility antigen gamma chain)
# Experimental: (§3) Parental Ba/F3 cells were cultured with an additional 1 ng/mL recombinant mouse IL-3 (ProSpec). […] Cell viability was evaluated using the CellTiter-Glo® Luminescent Cell Viability Assay (Promega) following the manufacturer's standards. […] Anti-proliferative best fit IC50 values were calculated by Graphpad Prism 7 software.
# [1] = tested on: ALK wild type, ALK mutants, TRKA, TRKB, TRKC and ROS1; assay: AMBIT profile, DiscoverX KINOMEscan Assay platform; assay type: binding; settings: for Ambit profile potency and selectivity: Example 10, FIG. 7A and 7B
# Text: The AMBIT data were generated using DiscoverX KINOMEscan® Assay platform.
# The experimental protocol was as in Example 9.
# [2] = tested on: Ba/F3 cell lines expressing EML4-ALK and EML4-ALK with secondary mutations; assay: Anti-proliferation assay in EML4-ALK Ba/F3 cell lines; assay type: cell-based
# Experimental: as §2
# Ba/F3 EML4-ALK cells = target: T8, Ba/F3 EML4-ALK cells (Homo sapiens, UniProt Q9UM73); assay: Cell viability assay (CellTiter-Glo, 72 hr); assay type: cell-based
# T8 construct: expressed in transfected cells; host or cells: Ba/F3; the other entry of the earlier key: EML4 (Q9HC35, Echinoderm microtubule-associated protein-like 4)
# Experimental: as §3
# [3] = target: T9, Ba/F3 EML4-ALK C1156Y cells (Homo sapiens, UniProt Q9UM73, C1156Y); assay: Cell viability assay (CellTiter-Glo, 72 hr); assay type: cell-based
# T9 construct: expressed in transfected cells; host or cells: Ba/F3; the other entry of the earlier key: EML4 (Q9HC35, Echinoderm microtubule-associated protein-like 4)
# Experimental: as §3
# [4] = target: T10, Ba/F3 EML4-ALK L1196M cells (Homo sapiens, UniProt Q9UM73, L1196M); assay: Cell viability assay (CellTiter-Glo, 72 hr); assay type: cell-based
# T10 construct: expressed in transfected cells; host or cells: Ba/F3; the other entry of the earlier key: EML4 (Q9HC35, Echinoderm microtubule-associated protein-like 4)
# Experimental: as §3
# [5] = target: T11, Ba/F3 EML4-ALK G1202R cells (Homo sapiens, UniProt Q9UM73, G1202R); assay: Cell viability assay (CellTiter-Glo, 72 hr); assay type: cell-based
# T11 construct: expressed in transfected cells; host or cells: Ba/F3; the other entry of the earlier key: EML4 (Q9HC35, Echinoderm microtubule-associated protein-like 4)
# Experimental: as §3
# [6] = tested on: tel-TRK fusion Ba/F3 cell lines; assay: IC50 in TEL-TRK Ba/F3 cells; assay type: cell-based; settings: all 3 tel-TRK fusion Ba/F3 cell lines; FIG. 5
# Text: The IC50 values were generated using ACD/Labs GraphPad Prism (version 7).
# T5 sequence (P08922 28-2347): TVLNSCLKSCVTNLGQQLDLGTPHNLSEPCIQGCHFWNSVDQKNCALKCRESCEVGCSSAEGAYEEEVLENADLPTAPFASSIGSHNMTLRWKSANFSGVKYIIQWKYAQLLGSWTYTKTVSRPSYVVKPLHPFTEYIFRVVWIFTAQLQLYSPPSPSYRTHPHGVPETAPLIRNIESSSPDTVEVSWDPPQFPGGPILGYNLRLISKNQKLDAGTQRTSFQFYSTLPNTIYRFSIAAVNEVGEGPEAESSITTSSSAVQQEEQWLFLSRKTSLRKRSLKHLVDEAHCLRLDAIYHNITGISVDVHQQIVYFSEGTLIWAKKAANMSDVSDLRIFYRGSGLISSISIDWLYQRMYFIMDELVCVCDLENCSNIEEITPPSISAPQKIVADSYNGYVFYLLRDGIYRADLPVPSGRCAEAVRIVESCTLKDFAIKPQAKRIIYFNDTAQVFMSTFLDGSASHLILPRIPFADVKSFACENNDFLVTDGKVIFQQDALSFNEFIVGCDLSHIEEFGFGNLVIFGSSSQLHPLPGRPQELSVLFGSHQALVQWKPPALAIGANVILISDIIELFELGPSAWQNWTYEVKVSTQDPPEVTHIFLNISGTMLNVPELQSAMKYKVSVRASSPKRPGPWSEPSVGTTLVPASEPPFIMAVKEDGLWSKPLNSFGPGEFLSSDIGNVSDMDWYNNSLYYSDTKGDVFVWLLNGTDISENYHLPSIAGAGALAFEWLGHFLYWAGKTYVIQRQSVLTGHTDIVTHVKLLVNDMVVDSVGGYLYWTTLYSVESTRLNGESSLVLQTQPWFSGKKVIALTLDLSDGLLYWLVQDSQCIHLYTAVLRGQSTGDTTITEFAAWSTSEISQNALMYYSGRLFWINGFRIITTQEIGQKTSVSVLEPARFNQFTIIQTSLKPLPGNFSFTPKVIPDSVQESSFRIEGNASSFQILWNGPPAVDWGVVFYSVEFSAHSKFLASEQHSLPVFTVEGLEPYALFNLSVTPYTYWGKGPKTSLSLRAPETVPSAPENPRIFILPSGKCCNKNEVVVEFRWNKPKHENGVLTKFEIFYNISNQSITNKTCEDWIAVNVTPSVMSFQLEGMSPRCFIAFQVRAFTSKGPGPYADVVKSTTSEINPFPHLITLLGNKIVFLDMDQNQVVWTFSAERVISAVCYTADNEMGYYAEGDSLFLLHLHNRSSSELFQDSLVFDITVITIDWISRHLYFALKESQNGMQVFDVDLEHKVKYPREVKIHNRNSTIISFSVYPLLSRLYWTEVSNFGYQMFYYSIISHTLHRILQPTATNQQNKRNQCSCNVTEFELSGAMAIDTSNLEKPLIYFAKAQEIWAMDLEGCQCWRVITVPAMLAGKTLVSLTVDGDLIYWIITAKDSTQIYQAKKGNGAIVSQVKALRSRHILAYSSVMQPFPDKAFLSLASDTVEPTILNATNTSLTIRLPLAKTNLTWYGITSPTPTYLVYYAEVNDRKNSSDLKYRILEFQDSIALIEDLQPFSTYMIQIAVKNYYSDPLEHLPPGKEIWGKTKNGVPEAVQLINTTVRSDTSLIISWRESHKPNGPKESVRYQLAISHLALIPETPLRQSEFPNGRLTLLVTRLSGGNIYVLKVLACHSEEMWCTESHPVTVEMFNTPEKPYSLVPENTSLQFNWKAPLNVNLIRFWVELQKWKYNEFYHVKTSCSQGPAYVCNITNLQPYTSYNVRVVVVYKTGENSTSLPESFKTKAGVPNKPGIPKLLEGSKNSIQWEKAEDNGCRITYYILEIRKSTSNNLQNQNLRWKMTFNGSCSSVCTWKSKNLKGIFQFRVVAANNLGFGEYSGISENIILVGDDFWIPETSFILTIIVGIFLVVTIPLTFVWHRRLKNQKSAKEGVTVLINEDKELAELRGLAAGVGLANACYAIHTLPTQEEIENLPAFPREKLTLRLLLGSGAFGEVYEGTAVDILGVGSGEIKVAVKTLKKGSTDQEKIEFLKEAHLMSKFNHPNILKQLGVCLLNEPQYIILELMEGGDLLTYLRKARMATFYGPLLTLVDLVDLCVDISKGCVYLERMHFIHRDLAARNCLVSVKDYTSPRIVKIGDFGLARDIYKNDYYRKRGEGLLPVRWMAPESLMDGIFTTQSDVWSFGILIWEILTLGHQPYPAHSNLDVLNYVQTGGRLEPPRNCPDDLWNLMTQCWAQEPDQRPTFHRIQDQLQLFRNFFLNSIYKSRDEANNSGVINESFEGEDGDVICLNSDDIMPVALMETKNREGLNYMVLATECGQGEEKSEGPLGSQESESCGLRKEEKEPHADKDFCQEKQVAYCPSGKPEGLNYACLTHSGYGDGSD
# T4 sequence (Q16620 32-822): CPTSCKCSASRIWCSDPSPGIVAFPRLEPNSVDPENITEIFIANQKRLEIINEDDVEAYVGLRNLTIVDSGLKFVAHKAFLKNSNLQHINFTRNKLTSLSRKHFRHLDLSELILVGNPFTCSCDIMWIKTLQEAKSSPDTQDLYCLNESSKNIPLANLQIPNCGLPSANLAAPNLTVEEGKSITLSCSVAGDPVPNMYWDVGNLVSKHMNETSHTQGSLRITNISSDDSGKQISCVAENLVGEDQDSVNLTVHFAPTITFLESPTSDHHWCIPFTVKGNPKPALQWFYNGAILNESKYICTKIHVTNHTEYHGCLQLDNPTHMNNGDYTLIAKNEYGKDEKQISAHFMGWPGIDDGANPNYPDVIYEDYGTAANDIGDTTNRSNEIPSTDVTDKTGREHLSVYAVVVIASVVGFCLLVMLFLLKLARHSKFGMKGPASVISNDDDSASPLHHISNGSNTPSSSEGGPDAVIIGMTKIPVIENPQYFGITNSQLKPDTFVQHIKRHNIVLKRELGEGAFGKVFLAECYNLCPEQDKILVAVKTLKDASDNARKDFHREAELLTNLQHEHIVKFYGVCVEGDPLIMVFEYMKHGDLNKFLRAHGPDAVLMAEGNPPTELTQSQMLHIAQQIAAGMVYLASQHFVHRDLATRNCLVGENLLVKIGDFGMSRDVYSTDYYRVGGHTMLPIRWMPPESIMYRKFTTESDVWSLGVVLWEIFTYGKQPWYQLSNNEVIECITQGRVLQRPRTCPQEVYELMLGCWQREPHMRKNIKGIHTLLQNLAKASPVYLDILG
# T3 sequence (Q9UM73 19-1620): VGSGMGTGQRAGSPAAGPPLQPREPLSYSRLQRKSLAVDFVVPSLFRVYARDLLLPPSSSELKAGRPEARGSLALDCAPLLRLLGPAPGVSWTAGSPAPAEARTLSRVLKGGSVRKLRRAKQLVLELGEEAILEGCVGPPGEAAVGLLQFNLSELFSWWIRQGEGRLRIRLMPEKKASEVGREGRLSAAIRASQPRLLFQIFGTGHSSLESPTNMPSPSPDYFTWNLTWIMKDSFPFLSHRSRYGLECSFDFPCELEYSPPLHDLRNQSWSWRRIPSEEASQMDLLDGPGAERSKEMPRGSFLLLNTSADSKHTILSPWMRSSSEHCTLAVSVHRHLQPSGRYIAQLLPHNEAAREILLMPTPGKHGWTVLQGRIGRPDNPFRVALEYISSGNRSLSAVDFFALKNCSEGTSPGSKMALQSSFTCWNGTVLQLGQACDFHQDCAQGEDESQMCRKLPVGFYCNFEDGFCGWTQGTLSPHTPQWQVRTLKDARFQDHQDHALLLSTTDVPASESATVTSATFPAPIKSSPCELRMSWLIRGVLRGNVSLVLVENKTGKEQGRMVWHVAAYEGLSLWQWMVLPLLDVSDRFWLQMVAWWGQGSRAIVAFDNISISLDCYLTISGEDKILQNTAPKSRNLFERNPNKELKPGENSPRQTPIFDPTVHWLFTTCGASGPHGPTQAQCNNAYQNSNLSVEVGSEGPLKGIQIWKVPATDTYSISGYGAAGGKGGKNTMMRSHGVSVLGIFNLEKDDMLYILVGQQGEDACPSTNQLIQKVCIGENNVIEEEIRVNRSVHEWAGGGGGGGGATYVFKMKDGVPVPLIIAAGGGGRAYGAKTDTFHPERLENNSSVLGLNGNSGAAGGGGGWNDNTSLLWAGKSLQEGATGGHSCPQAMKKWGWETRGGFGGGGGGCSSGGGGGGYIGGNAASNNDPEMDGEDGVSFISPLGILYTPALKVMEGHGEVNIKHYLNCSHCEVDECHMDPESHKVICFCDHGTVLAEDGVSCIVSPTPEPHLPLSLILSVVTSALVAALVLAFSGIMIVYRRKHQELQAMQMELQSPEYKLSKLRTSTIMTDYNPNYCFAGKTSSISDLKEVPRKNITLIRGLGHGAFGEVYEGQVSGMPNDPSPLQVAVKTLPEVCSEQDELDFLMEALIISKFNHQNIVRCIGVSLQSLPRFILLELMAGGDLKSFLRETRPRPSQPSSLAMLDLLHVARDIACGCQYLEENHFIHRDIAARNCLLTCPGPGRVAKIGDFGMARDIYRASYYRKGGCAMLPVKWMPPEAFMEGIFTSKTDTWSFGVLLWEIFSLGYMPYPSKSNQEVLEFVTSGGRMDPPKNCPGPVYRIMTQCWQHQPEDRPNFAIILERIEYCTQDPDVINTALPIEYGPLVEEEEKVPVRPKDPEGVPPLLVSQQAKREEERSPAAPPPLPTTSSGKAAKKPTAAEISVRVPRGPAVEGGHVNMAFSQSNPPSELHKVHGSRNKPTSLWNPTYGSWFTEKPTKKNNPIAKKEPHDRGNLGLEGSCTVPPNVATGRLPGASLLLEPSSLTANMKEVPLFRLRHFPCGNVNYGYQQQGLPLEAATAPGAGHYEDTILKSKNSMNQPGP
# T2 sequence (Q9UM73 19-1620 L1196M): as the sequence (Q9UM73 19-1620) above, with L1178M counted along it
# T7 sequence (P04629 510-796 limits assumed): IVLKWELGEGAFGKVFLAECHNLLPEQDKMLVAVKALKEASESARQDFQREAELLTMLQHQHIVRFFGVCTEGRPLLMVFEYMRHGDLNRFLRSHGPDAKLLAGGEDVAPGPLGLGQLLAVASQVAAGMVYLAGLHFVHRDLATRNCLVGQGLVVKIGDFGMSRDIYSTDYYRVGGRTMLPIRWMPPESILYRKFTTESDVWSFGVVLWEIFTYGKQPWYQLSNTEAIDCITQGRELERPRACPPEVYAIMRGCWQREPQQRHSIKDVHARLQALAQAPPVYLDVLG
Structure (SMILES),IC50 (TRK3),IC50 (ALK L1196M),IC50 (ALK),IC50 (TRK2),IC50 (ROS1),IC50 (TRK1),potency (IC50) relative to entrectinib in tel-TRK fusion Ba/F3 cell lines [6],IC50 (Parental WT Ba/F3 cells),IC50 (CD74-NTRK1 Ba/F3 cells),"non-specific activity in parental Ba/F3 cells, compared in words (Parental WT Ba/F3 cells)",Ambit profile potency and selectivity [1],"anti-proliferative activity relative to lorlatinib ([2]; Example 11, FIG. 1)","activity relative to lorlatinib and JH-XIII-157-2 ([2]; Example 12, FIG. 2A-2D, Tables 2-5)","Ambit profile selectivity (percent activity remaining) ([1]; Example 9, FIG. 6)",IC50 (Ba/F3 EML4-ALK cells),IC50 [3],IC50 [4],activity relative to entrectinib in CD74-NTRK1 expressing Ba/F3 cells (CD74-NTRK1 Ba/F3 cells; in words),IC50 [5]
"C[C@H]1Oc2cc(cnc2N)-c2c(nn(C)c2C#N)CN(C)C(=O)c2ccc(F)cc21 [Lorlatinib, reference compound]",–,–,–,–,–,–,–,18900 nM,66.9 nM,–,–,–,–,–,–,–,–,–,–
CN1CCN(c2ccc(C(=O)Nc3n[nH]c4ccc(Cc5cc(F)cc(F)c5)cc34)c(NC3CCOCC3)c2)CC1 [Entrectinib],–,–,–,–,–,–,–,2020 nM,–,more active than compound I-1a,–,–,–,–,–,–,–,–,–
"CN1Cc2nn(C)cc2-c2cnc(N)c(c2)N2CCC[C@@H]2c2cc(F)ccc2C1=O [Compound I-1a, (R)-26-amino-45-fluoro-11,6-dimethyl-11H-6-aza-2(3,5)-pyridina-1(4,3)-pyrazola-3(1,2)-pyrrolidina-4(1,3)-benzenacycloheptaphan-5-one]",0.7 nM,6 nM,12 nM,0.5 nM,1.3 nM,3 nM,more potent than entrectinib,19000 nM,0.13 nM,less non-specific activity than entrectinib,"very potent and selective for ALK, TRKA, TRKB, and TRKC",lower activity,lower activity,"quite selective toward ALK wild type, ALK mutants as well as TRKA, TRKB, TRKC and ROS1",23.4 nM,151 nM,144 nM,entrectinib like activity,1220 nM
"COc1c2c(nn1C)CN(C)C(=O)c1ccc(F)cc1[C@H]1CCCN1c1cc-2cnc1N [Compound I-1b, (R)-26-amino-45-fluoro-15-methoxy-11,6-dimethyl-11H-6-aza-2(3,5)-pyridina-1(4,3)-pyrazola-3(1,2)-pyrrolidina-4(1,3)-benzenacycloheptaphan-5-one]",0.7 nM,20 nM,9 nM,0.9 nM,0.9 nM,4 nM,–,–,–,–,"very potent and selective for ALK, TRKA, TRKB, and TRKC",–,–,–,–,–,–,–,–

# Second part, led by results:
IC50 (TRK3),IC50 (ALK L1196M),IC50 (ALK),IC50 (TRK2),IC50 (ROS1),IC50 (TRK1),potency (IC50) relative to entrectinib in tel-TRK fusion Ba/F3 cell lines [6],Structure (SMILES),IC50 (Parental WT Ba/F3 cells),IC50 (CD74-NTRK1 Ba/F3 cells),"non-specific activity in parental Ba/F3 cells, compared in words (Parental WT Ba/F3 cells)",Ambit profile potency and selectivity [1],"anti-proliferative activity relative to lorlatinib ([2]; Example 11, FIG. 1)","activity relative to lorlatinib and JH-XIII-157-2 ([2]; Example 12, FIG. 2A-2D, Tables 2-5)","Ambit profile selectivity (percent activity remaining) ([1]; Example 9, FIG. 6)",IC50 (Ba/F3 EML4-ALK cells),IC50 [3],IC50 [4],activity relative to entrectinib in CD74-NTRK1 expressing Ba/F3 cells (CD74-NTRK1 Ba/F3 cells; in words),IC50 [5]
0.7 nM,6 nM,6 nM,0.7 nM,0.7 nM,2 nM,–,"Cn1cc2c(n1)CN(C1CC1)C(=O)c1ccc(F)cc1[C@H]1CCCN1c1cc-2cnc1N [Compound I-1e, (R)-2^6-amino-6-cyclopropyl-4^5-fluoro-1^1-methyl-1^1H-6-aza-2(3,5)-pyridina-1(4,3)-pyrazola-3(1,2)-pyrrolidina-4(1,3)-benzenacycloheptaphan-5-one]",–,–,–,–,–,–,–,–,–,–,–,–
0.5 nM,3 nM,5 nM,< 0.5 nM,0.6 nM,1 nM,–,"Cc1c2c(nn1C)CN(C)C(=O)c1ccc(F)cc1[C@H]1CCCN1c1cc-2cnc1N [Compound I-1c, (R)-2^6-amino-4^5-fluoro-1^1,1^5,6-trimethyl-1^1H-6-aza-2(3,5)-pyridina-1(4,3)-pyrazola-3(1,2)-pyrrolidina-4(1,3)-benzenacycloheptaphan-5-one]",–,–,–,"very potent and selective for ALK, TRKA, TRKB, and TRKC",–,–,–,–,–,–,–,–
2 nM,3 nM,7 nM,5 nM,1 nM,6 nM,–,"CN1Cc2nn(C)c(C#N)c2-c2cnc(N)c(c2)N2CCC[C@@H]2c2cc(F)ccc2C1=O [Compound I-1d, (R)-2^6-amino-4^5-fluoro-1,6-dimethyl-5-oxo-1^1H-6-aza-2(3,5)-pyridina-1(4,3)-pyrazola-3(1,2)-pyrrolidina-4(1,3)-benzenacycloheptaphane-15-carbonitrile]",–,–,–,"very potent and selective for ALK, TRKA, TRKB, and TRKC",–,–,–,–,–,–,–,–
